Data taken from the kinase profiling compilation of Christmann-Franck et al. (2016).

Columns and labels:
Experiment in all cases: split-luciferase competition binding
PRKACA (mouse) = conditions: compound 10.0 µM; accession and sequence are those of the human protein
PRKACB (human) = PRKACB (human) (UniProt P22694); conditions: compound 10.0 µM
RPS6KA2 KD1 (human) = RPS6KA2 KD1 (human) (UniProt Q15349); conditions: compound 10.0 µM
STK32B (human) = STK32B (human) (UniProt Q9NY57); conditions: compound 10.0 µM
SGK3 (human) = SGK3 (human) (UniProt Q96BR1); conditions: compound 10.0 µM
PRKCQ (human) = PRKCQ (human) (UniProt Q04759); conditions: compound 10.0 µM
PRKCQ (human), sequence (Q04759 whole entry, looked up): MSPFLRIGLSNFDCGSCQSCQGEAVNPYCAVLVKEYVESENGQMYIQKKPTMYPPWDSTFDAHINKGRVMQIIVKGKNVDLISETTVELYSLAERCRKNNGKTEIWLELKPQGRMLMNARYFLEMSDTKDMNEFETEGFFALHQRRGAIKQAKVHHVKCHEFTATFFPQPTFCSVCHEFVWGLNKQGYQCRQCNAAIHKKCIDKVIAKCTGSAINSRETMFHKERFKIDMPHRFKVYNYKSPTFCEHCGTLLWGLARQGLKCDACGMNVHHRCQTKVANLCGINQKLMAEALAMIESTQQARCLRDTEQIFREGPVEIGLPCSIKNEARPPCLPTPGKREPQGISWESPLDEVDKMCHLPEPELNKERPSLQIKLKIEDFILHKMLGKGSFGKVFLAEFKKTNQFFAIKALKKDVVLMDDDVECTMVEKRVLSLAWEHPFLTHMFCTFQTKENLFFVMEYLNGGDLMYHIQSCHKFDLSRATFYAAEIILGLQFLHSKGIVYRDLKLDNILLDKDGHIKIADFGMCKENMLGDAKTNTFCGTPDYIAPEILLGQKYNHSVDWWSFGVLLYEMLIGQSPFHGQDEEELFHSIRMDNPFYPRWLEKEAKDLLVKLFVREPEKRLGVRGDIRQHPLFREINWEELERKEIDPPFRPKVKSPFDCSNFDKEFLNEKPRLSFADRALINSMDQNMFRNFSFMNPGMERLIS

PRKCD (human) = PRKCD (human) (UniProt Q05655); conditions: compound 10.0 µM
SGK2 (human) = SGK2 (human) (UniProt Q9HBY8); conditions: compound 10.0 µM
RPS6KA1 KD1 (human) = RPS6KA1 KD1 (human) (UniProt Q15418); conditions: compound 10.0 µM
PRKCE (human) = PRKCE (human) (UniProt Q02156); conditions: compound 10.0 µM
DMPK (human) = DMPK (human) (UniProt Q09013); conditions: compound 10.0 µM
DMPK (human), sequence (Q09013 whole entry, looked up): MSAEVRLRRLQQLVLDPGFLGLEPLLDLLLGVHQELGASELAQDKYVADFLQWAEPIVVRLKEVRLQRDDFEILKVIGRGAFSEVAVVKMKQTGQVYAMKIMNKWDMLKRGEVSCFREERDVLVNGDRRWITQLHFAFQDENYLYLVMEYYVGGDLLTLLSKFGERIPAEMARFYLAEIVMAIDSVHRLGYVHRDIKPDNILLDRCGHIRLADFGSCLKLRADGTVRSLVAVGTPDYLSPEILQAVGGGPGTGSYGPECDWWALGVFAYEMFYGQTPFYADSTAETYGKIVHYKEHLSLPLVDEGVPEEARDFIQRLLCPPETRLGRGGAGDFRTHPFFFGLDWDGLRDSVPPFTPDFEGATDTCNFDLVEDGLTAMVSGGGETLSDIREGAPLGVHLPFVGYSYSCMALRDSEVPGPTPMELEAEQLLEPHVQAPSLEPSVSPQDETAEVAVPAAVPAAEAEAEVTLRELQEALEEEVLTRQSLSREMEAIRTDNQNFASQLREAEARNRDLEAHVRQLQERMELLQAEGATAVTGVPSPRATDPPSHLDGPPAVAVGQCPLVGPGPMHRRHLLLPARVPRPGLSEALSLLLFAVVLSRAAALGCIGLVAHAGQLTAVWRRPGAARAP

AKT1 (human) = AKT1 (human) (UniProt P31749); conditions: compound 10.0 µM
RPS6KA4 KD1 (human) = RPS6KA4 KD1 (human) (UniProt O75676); conditions: compound 10.0 µM
RPS6KA4 KD1 (human), sequence (O75676 whole entry, looked up): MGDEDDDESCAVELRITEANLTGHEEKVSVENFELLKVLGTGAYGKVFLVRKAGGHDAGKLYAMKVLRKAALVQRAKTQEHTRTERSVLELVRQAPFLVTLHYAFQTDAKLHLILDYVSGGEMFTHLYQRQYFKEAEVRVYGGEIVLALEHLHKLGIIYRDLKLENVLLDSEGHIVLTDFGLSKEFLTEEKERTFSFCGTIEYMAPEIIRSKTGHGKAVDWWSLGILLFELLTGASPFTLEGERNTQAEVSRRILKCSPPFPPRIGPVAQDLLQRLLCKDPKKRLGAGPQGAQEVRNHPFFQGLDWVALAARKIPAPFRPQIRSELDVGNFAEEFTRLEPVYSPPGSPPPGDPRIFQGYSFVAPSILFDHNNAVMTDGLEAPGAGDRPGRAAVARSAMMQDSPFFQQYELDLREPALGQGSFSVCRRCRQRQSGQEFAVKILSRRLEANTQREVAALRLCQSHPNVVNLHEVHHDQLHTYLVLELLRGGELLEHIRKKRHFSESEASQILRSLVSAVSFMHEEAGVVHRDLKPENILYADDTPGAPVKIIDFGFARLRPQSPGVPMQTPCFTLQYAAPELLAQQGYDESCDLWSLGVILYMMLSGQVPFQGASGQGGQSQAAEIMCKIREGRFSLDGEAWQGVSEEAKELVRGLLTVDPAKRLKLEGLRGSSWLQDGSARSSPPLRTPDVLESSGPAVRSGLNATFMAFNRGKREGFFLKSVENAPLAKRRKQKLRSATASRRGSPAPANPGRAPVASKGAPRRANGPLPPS

RPS6KA3 KD1 (human) = RPS6KA3 KD1 (human) (UniProt P51812); conditions: compound 10.0 µM
PDPK1 (human) = PDPK1 (human) (UniProt O15530); conditions: compound 10.0 µM
PRKCI (human) = PRKCI (human) (UniProt P41743); conditions: compound 10.0 µM
AKT3 (human) = AKT3 (human) (UniProt Q9Y243); conditions: compound 10.0 µM
AKT3 (human), sequence (Q9Y243 whole entry, looked up): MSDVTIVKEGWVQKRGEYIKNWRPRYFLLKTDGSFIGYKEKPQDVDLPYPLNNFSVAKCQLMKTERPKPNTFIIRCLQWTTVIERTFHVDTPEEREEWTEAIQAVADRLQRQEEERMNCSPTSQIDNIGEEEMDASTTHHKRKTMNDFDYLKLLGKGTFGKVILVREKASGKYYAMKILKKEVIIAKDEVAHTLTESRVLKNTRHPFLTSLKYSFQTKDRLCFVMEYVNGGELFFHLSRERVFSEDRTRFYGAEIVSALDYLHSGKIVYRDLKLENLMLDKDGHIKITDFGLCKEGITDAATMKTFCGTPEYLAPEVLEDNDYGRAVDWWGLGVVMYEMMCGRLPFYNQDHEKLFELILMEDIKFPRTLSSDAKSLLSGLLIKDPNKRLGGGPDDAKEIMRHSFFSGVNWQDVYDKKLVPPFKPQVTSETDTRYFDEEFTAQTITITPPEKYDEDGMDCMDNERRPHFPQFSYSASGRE

AURKA (human) = AURKA (human) (UniProt O14965); conditions: compound 10.0 µM
RPS6KA5 KD1 (human) = RPS6KA5 KD1 (human) (UniProt O75582); conditions: compound 10.0 µM
AURKC (human) = AURKC (human) (UniProt Q9UQB9); conditions: compound 10.0 µM
AURKC (human), sequence (Q9UQB9 whole entry, looked up): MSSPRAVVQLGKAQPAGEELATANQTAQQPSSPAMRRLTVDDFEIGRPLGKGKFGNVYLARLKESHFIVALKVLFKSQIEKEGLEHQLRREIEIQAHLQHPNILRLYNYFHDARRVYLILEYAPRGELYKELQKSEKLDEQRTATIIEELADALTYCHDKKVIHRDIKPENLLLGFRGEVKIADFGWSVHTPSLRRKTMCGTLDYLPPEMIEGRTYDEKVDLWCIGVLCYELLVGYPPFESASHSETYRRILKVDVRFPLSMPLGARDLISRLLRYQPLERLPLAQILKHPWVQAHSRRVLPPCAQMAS

AURKB (human) = AURKB (human) (UniProt Q96GD4); conditions: compound 10.0 µM
AURKB (human), sequence (Q96GD4 whole entry, looked up): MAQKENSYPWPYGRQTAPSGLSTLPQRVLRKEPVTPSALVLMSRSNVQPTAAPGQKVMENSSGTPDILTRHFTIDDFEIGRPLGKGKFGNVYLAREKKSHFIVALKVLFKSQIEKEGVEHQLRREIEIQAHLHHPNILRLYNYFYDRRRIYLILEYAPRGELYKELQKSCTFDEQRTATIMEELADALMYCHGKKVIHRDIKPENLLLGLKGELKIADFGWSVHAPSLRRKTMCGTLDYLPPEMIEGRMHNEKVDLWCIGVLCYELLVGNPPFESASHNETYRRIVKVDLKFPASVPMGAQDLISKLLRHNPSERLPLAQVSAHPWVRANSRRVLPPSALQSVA

PKN1 (human) = PKN1 (human) (UniProt Q16512); conditions: compound 10.0 µM
PRKX (human) = PRKX (human) (UniProt P51817); conditions: compound 10.0 µM
PRKX (human), sequence (P51817 whole entry, looked up): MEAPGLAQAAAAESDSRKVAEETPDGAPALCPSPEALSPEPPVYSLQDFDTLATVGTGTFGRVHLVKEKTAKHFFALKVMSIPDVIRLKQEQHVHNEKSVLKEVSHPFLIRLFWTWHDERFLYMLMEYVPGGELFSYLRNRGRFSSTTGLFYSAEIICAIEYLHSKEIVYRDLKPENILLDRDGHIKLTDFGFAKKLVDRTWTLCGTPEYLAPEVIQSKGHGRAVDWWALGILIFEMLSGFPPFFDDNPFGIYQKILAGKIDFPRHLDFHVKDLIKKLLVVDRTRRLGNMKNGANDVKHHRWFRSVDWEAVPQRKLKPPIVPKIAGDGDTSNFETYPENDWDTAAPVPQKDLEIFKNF

PRKCG (human) = PRKCG (human) (UniProt P05129); conditions: compound 10.0 µM
PRKCH (human) = PRKCH (human) (UniProt P24723); conditions: compound 10.0 µM
PRKCH (human), sequence (P24723 whole entry, looked up): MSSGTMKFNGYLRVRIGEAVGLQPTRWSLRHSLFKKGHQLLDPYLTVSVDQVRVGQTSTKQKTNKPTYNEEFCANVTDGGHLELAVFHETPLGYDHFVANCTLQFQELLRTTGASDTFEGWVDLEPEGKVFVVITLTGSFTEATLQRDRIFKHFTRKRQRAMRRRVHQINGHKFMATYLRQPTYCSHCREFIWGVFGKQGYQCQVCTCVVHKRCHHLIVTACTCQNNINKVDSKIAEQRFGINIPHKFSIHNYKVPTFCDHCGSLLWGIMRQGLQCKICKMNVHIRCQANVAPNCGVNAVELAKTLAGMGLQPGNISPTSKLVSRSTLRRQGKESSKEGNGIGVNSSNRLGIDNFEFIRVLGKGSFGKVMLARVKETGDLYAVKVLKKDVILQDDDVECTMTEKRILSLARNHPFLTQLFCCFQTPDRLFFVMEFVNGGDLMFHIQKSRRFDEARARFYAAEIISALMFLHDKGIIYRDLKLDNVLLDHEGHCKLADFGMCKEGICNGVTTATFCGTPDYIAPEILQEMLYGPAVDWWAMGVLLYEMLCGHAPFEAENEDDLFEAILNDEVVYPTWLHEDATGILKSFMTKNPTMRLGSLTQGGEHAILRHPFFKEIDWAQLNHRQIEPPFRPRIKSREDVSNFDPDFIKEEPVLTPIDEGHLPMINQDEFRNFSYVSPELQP

AKT2 (human) = AKT2 (human) (UniProt P31751); conditions: compound 10.0 µM
RPS6KA6 KD1 (human) = RPS6KA6 KD1 (human) (UniProt Q9UK32); conditions: compound 10.0 µM

RPS6KA2 KD1 (human), sequence (Q15349 whole entry, looked up): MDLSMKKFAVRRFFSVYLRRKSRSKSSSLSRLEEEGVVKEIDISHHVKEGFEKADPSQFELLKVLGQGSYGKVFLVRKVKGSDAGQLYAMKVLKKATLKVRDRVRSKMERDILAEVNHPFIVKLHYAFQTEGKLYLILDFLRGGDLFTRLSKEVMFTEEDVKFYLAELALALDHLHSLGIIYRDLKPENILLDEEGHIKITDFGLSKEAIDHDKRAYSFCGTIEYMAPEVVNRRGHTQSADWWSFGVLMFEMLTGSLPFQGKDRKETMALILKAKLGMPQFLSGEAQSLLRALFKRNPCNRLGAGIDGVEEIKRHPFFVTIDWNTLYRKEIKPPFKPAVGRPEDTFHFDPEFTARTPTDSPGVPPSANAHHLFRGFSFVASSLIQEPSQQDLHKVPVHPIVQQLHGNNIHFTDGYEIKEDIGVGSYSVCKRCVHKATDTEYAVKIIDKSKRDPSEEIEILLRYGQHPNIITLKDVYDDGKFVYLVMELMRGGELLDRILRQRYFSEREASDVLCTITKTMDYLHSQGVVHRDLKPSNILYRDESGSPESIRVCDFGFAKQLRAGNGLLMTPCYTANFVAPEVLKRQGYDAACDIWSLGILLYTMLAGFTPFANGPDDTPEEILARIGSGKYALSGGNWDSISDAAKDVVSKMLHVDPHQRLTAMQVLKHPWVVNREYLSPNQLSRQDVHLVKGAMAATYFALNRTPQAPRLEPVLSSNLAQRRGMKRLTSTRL

| Structure (SMILES) | inhibition (PRKACA (mouse)) [%] | inhibition (PRKACB (human)) [%] | inhibition (RPS6KA2 KD1 (human)) [%] | inhibition (STK32B (human)) [%] | inhibition (SGK3 (human)) [%] | inhibition (PRKCQ (human)) [%] | inhibition (PRKCD (human)) [%] | inhibition (SGK2 (human)) [%] | inhibition (RPS6KA1 KD1 (human)) [%] | inhibition (PRKCE (human)) [%] | inhibition (DMPK (human)) [%] | inhibition (AKT1 (human)) [%] | inhibition (RPS6KA4 KD1 (human)) [%] | inhibition (RPS6KA3 KD1 (human)) [%] | inhibition (PDPK1 (human)) [%] | inhibition (PRKCI (human)) [%] | inhibition (AKT3 (human)) [%] | inhibition (AURKA (human)) [%] | inhibition (RPS6KA5 KD1 (human)) [%] | inhibition (AURKC (human)) [%] | other results |
| --- | --- | --- | --- | --- | --- | --- | --- | --- | --- | --- | --- | --- | --- | --- | --- | --- | --- | --- | --- | --- | --- |
| COc1ccc(Cl)cc1NC(=O)Nc1cc(C)nc2ccccc12 | 5 | 0 | 0 | 0 | 0 | 0 | 0 | 0 | 0 | 0 | 6 | 0 | 0 | 0 | 0 | 0 | 0 | 0 | 3 | 16 | inhibition (AURKB (human)): 14%; inhibition (PKN1 (human)): 0%; inhibition (PRKX (human)): 1%; inhibition (PRKCG (human)): 0%; inhibition (PRKCH (human)): 0%; inhibition (AKT2 (human)): 0%; inhibition (RPS6KA6 KD1 (human)): 0% |
| N#C/C(=C\c1ccc(O)c(O)c1)C(=O)NCc1ccccc1 | 3 | 0 | 0 | 0 | 0 | 0 | 2 | 0 | 0 | 0 | 0 | 0 | 0 | 0 | 0 | 0 | 0 | 0 | 0 | 10 | inhibition (AURKB (human)): 0%; inhibition (PKN1 (human)): 0%; inhibition (PRKX (human)): 0%; inhibition (PRKCG (human)): 0%; inhibition (PRKCH (human)): 0%; inhibition (AKT2 (human)): 0%; inhibition (RPS6KA6 KD1 (human)): 0% |
| COc1nccc(-c2c(-c3ccc(F)cc3)ncn2[C@H]2CC[C@H](O)CC2)n1 | 0 | 1 | 0 | 40 | 0 | 6 | 6 | 0 | 0 | 0 | 0 | 0 | 0 | 0 | 0 | 0 | 0 | 4 | 0 | 0 | inhibition (AURKB (human)): 6%; inhibition (PKN1 (human)): 12%; inhibition (PRKX (human)): 11%; inhibition (PRKCG (human)): 9%; inhibition (PRKCH (human)): 0%; inhibition (AKT2 (human)): 0%; inhibition (RPS6KA6 KD1 (human)): 0% |
| Oc1ccc(-c2nc(-c3ccc(F)cc3)c(-c3ccncc3)[nH]2)cc1 | 11 | 0 | 0 | 11 | 0 | 0 | 7 | 0 | 0 | 0 | 0 | 5 | 0 | 0 | 0 | 0 | 0 | 0 | 0 | 21 | inhibition (AURKB (human)): 0%; inhibition (PKN1 (human)): 0%; inhibition (PRKX (human)): 13%; inhibition (PRKCG (human)): 0%; inhibition (PRKCH (human)): 0%; inhibition (AKT2 (human)): 0%; inhibition (RPS6KA6 KD1 (human)): 0% |
| Nc1ncnc2[nH]nc(Nc3ccc(F)cc3)c12 | 9 | 1 | 0 | 42 | 23 | 17 | 0 | 9 | 0 | 6 | 2 | 3 | 0 | 0 | 0 | 0 | 0 | 0 | 0 | 16 | inhibition (AURKB (human)): 14%; inhibition (PKN1 (human)): 1%; inhibition (PRKX (human)): 24%; inhibition (PRKCG (human)): 0%; inhibition (PRKCH (human)): 13%; inhibition (AKT2 (human)): 0%; inhibition (RPS6KA6 KD1 (human)): 0% |
